{"source": "patent US9938238B2", "about": "“Anti-auxin compounds” (priority 2015, dated 2018)", "format_in_all_cases": "in vivo, Arabidopsis", "key": {"[1]": {"system": "chiB and PDF1.2 expression", "assay": "Expression of ethylene regulated defense genes in leaves", "conditions": "24 h", "protocol": "(§1) Total RNA was extracted from leaf tissue using the RNeasy Plant Mini Kit (Qiagen, Valencia, Calif.). 10 μg of total RNA was separated by electrophoresis in a 1% (w/v) denaturing agarose gel, after which the RNA was blotted to Zeta-Probe GT Blotting Membrane (Bio-Rad, Hercules, Calif.). ^32P-labelled probes were generated using the RadPrime DNA labeling system (Invitrogen).\nFor this analysis, Arabidopsis plants were grown hydroponically for 13 d after which they were treated with or without 10 μM ACC in the absence or presence of 25 μM PA, with all samples exposed to 10 μM+/−JA for the 24 h treatment period. […] Auxin functions in a synergistic manner with ethylene and JA to control expression of PDF1.2, with addition of auxin resulting in its hyperinduction (Robles et al., 2012)."}, "[2]": {"system": "ETR2, AtEBP, ACO2 expression", "assay": "Northern analysis of ethylene responsive gene expression in seedlings", "conditions": "Col-0 wt, hydroponic, dark 4 d", "protocol": "as §1\nManifestation of ethylene response is dependent on transcriptional induction of ethylene-regulated genes (Alonso et al., 2003; Chao et al., 1997; Solano et al., 1998). This relies on two primary transcription factors, EIN3 and EIL1, with mutational loss of both causing nearly complete ethylene insensitivity. It could be predicted that since PA treatment limits ethylene response it would also reduce or prevent ethylene inducible gene expression similar to the ethylene insensitive ein3-1; eil1-1 double mutant. To test this, Col-0 wt seedlings were treated with 5 μM AgNO3 or increasing concentrations of ethylene in the absence or presence of 25 μM PA, which is also a concentration that results in blockage of ethylene response. […] The latter two genes are not properly expressed in a group of enhanced ethylene response Arabidopsis mutants, with these argued to be members of a subset of ethylene regulated genes whose products are required for controlling the magnitude of ethylene response (Christians and Larsen, 2007; Christians et al., 2008; Deslauriers and Larsen, 2010; Robles et al., 2007).\nIn contrast to PA treatment, auxin has an antagonistic relationship regarding induction of this same subset of genes. Col-0 wt seedlings were grown hydroponically in the dark for 4 d in the presence of 5 μM AgNO3, 1 μM ACC or 10 μM ACC in the absence or presence of 10 μM 1-naphthaleneacetic acid (NAA) after which tissue was collected for RNA isolation and Northern analysis."}, "Col-0 wt seedlings": {"system": "Col-0 wt seedlings", "assay": "Blockage of auxin dependent inhibition of root growth", "conditions": "for root length, auxin alone: light, 7 d, 150 nM NAA or 300 nM IAA versus untreated roots", "protocol": "For screening for chemicals that reduce ethylene response, Arabidopsis ctr1-3 seeds were planted on a microtiter plate containing PNS media in the presence of individual chemicals (50 μM concentration of each) from the Microsource Spectrum Collection. Seedlings were grown in the dark for 4 d after which they were scored for manifestation of the ethylene responsive triple response. For all other growth experiments, seedlings were planted on PNS media supplemented with the relevant chemical (Deslauriers and Larsen, 2010). For conditions requiring pamoic acid, media was supplemented with Pamoic acid disodium salt (Sigma Life Science, St. Louis, Mo.). Measurement of ethylene production was conducted as previously described (Deslauriers and Larsen, 2010). […]"}, "DR5::GUS": {"system": "DR5::GUS", "assay": "GUS analysis of auxin responsive DR5::GUS reporter line", "conditions": "for GUS activity in root tip and mature region of the root, auxin alone: 100 nM NAA or 750 nM IAA", "protocol": "GUS analysis of DR5::GUS lines was performed as previously described (Ni et al., 2001).\nAuxin responsiveness has also been assessed using the Arabidopsis DR5::GUS transgenic line in which several auxin response elements are fused upstream of the GUS reporter gene (Ni et al., 2001). Normally, treatment of DR5::GUS lines with exogenous auxin leads to increased GUS levels, which can be visualized through accumulation of blue color upon adding X-Gluc."}, "ctr1-3 seedlings": {"system": "ctr1-3 seedlings", "assay": "Seedling triple response of constitutive ethylene response mutant ctr1-3 (library screen and follow-up)", "conditions": "etiolated ctr1-3 in air, 4 d, 50 μM of each chemical", "protocol": "For screening for chemicals that reduce ethylene response, Arabidopsis ctr1-3 seeds were planted on a microtiter plate containing PNS media in the presence of individual chemicals (50 μM concentration of each) from the Microsource Spectrum Collection. Seedlings were grown in the dark for 4 d after which they were scored for manifestation of the ethylene responsive triple response. For all other growth experiments, seedlings were planted on PNS media supplemented with the relevant chemical (Deslauriers and Larsen, 2010). For conditions requiring pamoic acid, media was supplemented with Pamoic acid disodium salt (Sigma Life Science, St. Louis, Mo.). Measurement of ethylene production was conducted as previously described (Deslauriers and Larsen, 2010).\nA chemical library screen was performed in which etiolated seedlings of the constitutive ethylene response mutant, ctr1-3, were grown in air for 4 d in the presence of chemicals from the Microsource Spectrum Collection, a bioactive and natural compound library consisting of 2000 different compounds. ctr1-3 seedlings were scored for presentation of the ethylene regulated seedling triple response, consisting of severe hypocotyl and root shortening and exaggerated apical hook formation."}}, "data": [{"compound": "NC1(C(=O)O)CC1", "note": "[ACC, 1-aminocyclopropane-1-carboxylic acid]", "values": [{"measurement": "chiB and PDF1.2 expression", "setting": "[1]; plants grown 13 d hydroponically, 10 μM ACC, 10 μM JA", "result": "increased expression"}, {"measurement": "induction of ACO2 and AtEBP", "setting": "[2]; 1 μM or 10 μM ACC without NAA", "result": "normal ethylene responsive induction"}]}, {"compound": "O=C(O)Cc1c[nH]c2ccccc12", "note": "[IAA, indole-3-acetic acid]", "values": [{"measurement": "root length, IAA alone", "setting": "Col-0 wt seedlings; 5 days, 300 nM IAA in the absence of Tolmetin (FIG. 6)", "result": "severely inhibitory to roots"}, {"measurement": "root length, auxin alone", "setting": "Col-0 wt seedlings", "result": "severe root growth inhibition"}, {"measurement": "GUS activity in root tip and mature region of the root, auxin alone", "setting": "DR5::GUS", "result": "increased GUS activity"}, {"measurement": "lateral root initiation, auxin alone", "setting": "DR5::GUS; 750 nM IAA (FIG. 8)", "result": "promotes initiation of lateral roots"}]}, {"compound": "O=C(O)Cc1cccc2ccccc12", "note": "[NAA, 1-naphthaleneacetic acid]", "values": [{"measurement": "root length, auxin alone", "setting": "Col-0 wt seedlings", "result": "severe root growth inhibition"}, {"measurement": "GUS activity in root tip and mature region of the root, auxin alone", "setting": "DR5::GUS", "result": "increased GUS activity"}, {"measurement": "chiB and PDF1.2 levels", "setting": "[1]; 10 μM ACC supplemented with 250 nM NAA", "result": "far greater than what was observed following treatment with ACC alone"}, {"measurement": "induction of ACO2 and AtEBP", "setting": "[2]; 1 μM or 10 μM ACC plus 10 μM NAA", "result": "nearly eliminated induction"}, {"measurement": "ETR2 expression", "setting": "[2]; ACC treatments plus 10 μM NAA", "result": "no obvious effect on ETR2 expression"}]}, {"compound": "CN1CCCN=C1/C=C/c1cccs1", "note": "[Pyrantel pamoate]", "values": [{"measurement": "apical hook formation in chemical library screen", "setting": "ctr1-3 seedlings", "result": "blocked apical hook formation"}, {"measurement": "root length in chemical library screen", "setting": "ctr1-3 seedlings", "result": "measurably longer roots"}]}]}
